Results on six molecules are retold here after paper PMC6907063, “The Herb-Drug Pharmacokinetic Interaction of Fluoxetine and Its Metabolite Norfluoxetine with a Traditional Chinese Medicine in Rats by LC-MS/MS” (Evidence-based Complementary and Alternative Medicine : eCAM, 2019).

Data set [1] can be described thus: Stability of the analytes in QC samples (LC-MS/MS method validation). It is filed as physicochemical, rat. As to conditions: n = 5. The protocol: Quality control (QC) samples were prepared in the same way as mentioned above. […] All stability studies were evaluated at low, medium, and high QC levels with five determinations for each test. The relative standard deviations (RSDs) were used to evaluate the stability of the analytes. The RSD was expected to be within ±15.0%.

The conditions of data set [2]: rat, in vivo, po, 1.8 mg/kg.
A short description of the next data set: in vivo. As to conditions: Sprague-Dawley, rat, po, 1.8 mg/kg.
A short description of data set [3]: Pharmacokinetics of fluoxetine and its metabolite norfluoxetine in rat plasma after oral fluoxetine with or without CSGS for 14 d (LC-MS/MS).
The conditions of data set [4]: continuous administration of FLU for 2 weeks; cited from earlier work.

The Tmax is the time from dosing to the highest level. The term Cmax denotes the highest concentration seen after dosing. As a reminder, the CL/F is the apparent clearance, not corrected for the fraction that reaches the circulation. A word on the MRT last: it is a mean duration of stay, worked out from the concentration-time curve. A word on the half-life: it is the time needed for the level to fall by half in the phase considered. A higher half-life goes with slow decline.

SMILES strings stand for the structures.

As to `CNCCC(Oc1ccc(C(F)(F)F)cc1)c1ccccc1` (stereo not drawn) [fluoxetine], the figures for the “Measured C, at room temperature for 4 h” value in data set [1] (QC concentration 1 ng/ml), in data set [1] (QC concentration 4 ng/ml) and in data set [1] (QC concentration 16 ng/ml) were 1.010 ± 0.028 ng/mL, 3.965 ± 0.210 ng/mL and 15.832 ± 0.536 ng/mL, respectively. Besides, the “Measured C, freeze-thaw three cycles” value in data set [1] (QC concentration 1 ng/ml) amounted to 0.997 ± 0.012 ng/mL; in data set [1] (QC concentration 4 ng/ml) it was 3.991 ± 0.212 ng/mL; in data set [1] (QC concentration 16 ng/ml) it was 15.872 ± 0.845 ng/mL. Further, the “Measured C, −20°C for 4 weeks” value in data set [1] (QC concentration 1 ng/ml) was found to be 0.987 ± 0.018 ng/mL; in data set [1] (QC concentration 4 ng/ml), 4.012 ± 0.231 ng/mL; in data set [1] (QC concentration 16 ng/ml) it was 15.872 ± 0.654 ng/mL. The “AUC (0–∞) of fluoxetine” value in data set [2] is listed as 12.20 ± 2.67 ug/L∗h. For the same molecule, the Tmax in “in vivo” was 0.75 h. Also, the Cmax in the data set “in vivo” (C max of fluoxetine) and in the data set “in vivo” (Cmax of fluoxetine) was 2.19 ng/mL in each case. Also, in “in vivo” (CLz/F of fluoxetine), the CL/F was 2490 mL/min/kg. Further, the MRT last in the data set “in vivo” (MRT (0–t) of fluoxetine) was 7.67 ± 1.02 h. In the data set “in vivo” (t1/2z of fluoxetine), this molecule gave a half-life of 8.95 ± 7.5 h. For the same molecule, the “AUCs (0–∞) of FLU” value stood at 12.20 ± 2.67 μg/L∗h in data set [3] (FLU group (fluoxetine 1.8 mg/kg·d for 14 d)), 11.20 ± 3.86 μg/L∗h in data set [3] (multiple dose group A (CSGS […]·d + fluoxetine 1.8 mg/kg·d)), 14.54 ± 3.22 μg/L∗h in data set [3] (multiple dose group B (CSGS 11.8 g/kg·d + fluoxetine 1.8 mg/kg·d)) and 22.01 ± 4.49 μg/L∗h in data set [3] (multiple dose group C (CSGS 23.6 g/kg·d + fluoxetine 1.8 mg/kg·d)).

Regarding `CC[C@H](C)C(=O)O[C@H]1C[C@@H](C)C=C2C=C[C@H](C)[C@H](CC[C@@H]3C[C@@H](O)CC(=O)O3)[C@H]21` [lovastatin], the “effect on AUC” value in data set [4] was “did not affect”.

As to `COc1ccc2c(c1)[C@]13CCCC[C@@H]1[C@H](C2)N(C)CC3` [dextromethorphan], the “increase of AUC” value in data set [4] is listed as 27 times.

`COc1ccc2[nH]c([S+]([O-])Cc3ncc(C)c(OC)c3C)nc2c1` (stereo not drawn) [omeprazole]: the “increase of AUC” value in data set [4] was 7.1 times.

`Cc1ncc2n1-c1ccc(Cl)cc1C(c1ccccc1F)=NC2` [midazolam]: the “effect on AUC” value in data set [4] was “did not affect”.

For `NCCC(Oc1ccc(C(F)(F)F)cc1)c1ccccc1` (stereo not drawn) [norfluoxetine], in data set [1] (QC concentration 2 ng/ml), the “Measured C, at room temperature for 4 h” value came to 1.943 ± 0.054 ng/mL; the “Measured C, freeze-thaw three cycles” value was 1.879 ± 0.045 ng/mL; the “Measured C, −20°C for 4 weeks” value came out at 1.873 ± 0.044 ng/mL. For the same molecule, in data set [1] (QC concentration 4 ng/ml), the “Measured C, at room temperature for 4 h” value was determined as 3.934 ± 0.186 ng/mL; the “Measured C, freeze-thaw three cycles” value worked out at 4.012 ± 0.231 ng/mL; the “Measured C, −20°C for 4 weeks” value is 3.891 ± 0.156 ng/mL. Also, in data set [1] (QC concentration 8 ng/ml), the “Measured C, at room temperature for 4 h” value worked out at 7.897 ± 0.234 ng/mL; the “Measured C, freeze-thaw three cycles” value was found to be 7.987 ± 0.341 ng/mL; the “Measured C, −20°C for 4 weeks” value stood at 7.871 ± 0.246 ng/mL.
